Twelve compounds from patent US6455472B1, “Phenyl-substituted cyclic enaminones” (Bayer Aktiengesellschaft, priority 1998, dated 2002) can be followed below.

The test system of data set [1] is weeds. Nature of the data set: Post emergence test, weeds. The format is in vivo. Conditions: sprayed, assessed after 3 weeks, application rate not stated. As for the experimental part:
(§1) Solvent: 5 parts by weight of acetone
(§2) Emulsifier: 1 part by weight of alkylaryl polyglycol ether
(§3) To produce a suitable preparation of active compound, 1 part by weight of active compound is mixed with the stated amount of solvent, the stated amount of emulsifier is added and the concentrate is diluted with water to the desired concentration.
Test plants which have a height of 5 to 15 cm are sprayed with the preparation of active compound such that the particular desired amounts of active compound are applied per unit area. After 3 weeks, the degree of damage to the plants is assessed in % damage in comparison to the development of the untreated controls.

Data set [2] has as its system weeds. Nature of the data set: Pre-emergence test, weeds. Format: in vivo. Conditions: soil watered 24 hours after sowing, assessed after three weeks, application rate not stated. As for the experimental part:
as §1, §2, §3
Seeds of the test plants are sown in normal soil and, after 24 hours, watered with the preparation of active compound. The amount of water per unit area is advantageously kept constant. The concentration of active compound in the preparation is immaterial, only the active compound application rate per unit area matters. After three weeks, the degree of damage to the plants is assessed in % damage in comparison with the development of the untreated control.

Data set [3] deals with caterpillars of the army worm (Spodoptera frugiperda). Briefly: Spodoptera frugiperda test. Format: in vivo. Conditions: cabbage leaves (Brassica oleracea) dipped into preparation of active compound; concentration and time not stated. As for the experimental part:
Solvent: 7 parts by weight of dimethylformamide
Emulsifier:: 1 part by weight of alkylaryl polyglycol ether
To produce a suitable preparation of active compound, 1 part by weight of active compound is mixed with the stated amounts of solvent and emulsifier, and the concentrate is diluted with water to the desired concentration.
Cabbage leaves (Brassica oleracea) are treated by being dipped into the preparation of active compound of the desired concentration and are populated with caterpillars of the army worm (Spodoptera frugiperda) while the leaves are still moist.
After the desired period of time, the kill in % is determined. 100% means that all caterpillars have been killed; 0% means that none of the caterpillars have been killed.

One may read the melting point as the temperature of the solid-liquid transition. On to `N#C/C(C(=O)c1ccc(Cl)cc1)=C1\CCCN1` [Example 1, 3-(4-chlorophenyl)-3-oxo-2-pyrrolidin-2-ylidene-propionitrile], for which the melting point is 156 to 158 °C. Still for that read-out and setting: next, `N#C/C(C(=O)c1ccc(Cl)cc1)=C1\CCCN1C(=O)c1ccc(Cl)cc1` [Example 5, 2-[1-(4-chlorobenzoyl)pyrrolidin-2-ylidene]-3-(4-chlorophenyl)-3-oxo-propionitrile]: 218 °C; `CCOC(=O)C1CC/C(=C(\C#N)C(=O)c2ccc(Cl)cc2)N1` (centres unmarked) [Example 7, ethyl 5-[2-(4-chloro-phenyl)-1-cyano-2-oxo-ethylidene]-pyrrolidine-2-carboxylate]: 108 to 110 °C; `N#C/C(C(=O)c1ccc(Cl)cc1)=C1\CCC(C(=O)O)N1` (centres unmarked) [Example 8, 5-[2-(4-chloro-phenyl)-1-cyano-2-oxo-ethylidene]-pyrrolidine-2-carboxylic acid]: 134 to 136 °C. With `N#C/C(C(=O)c1ccc(-c2ccc(Cl)cc2)cc1)=C1\CCCCN1` [I-1-a-54, 3-(4′-chloro-biphenyl-4-yl)-3-oxo-2-piperidin-2-ylidene-propionitrile], the melting point was 134 °C. Further, in the data set with weeds [1], the “activity against weeds (% damage)” value is “strong activity”. Also, in the data set on weeds [2], the “activity against weeds (% damage)” value is given as “strong activity”. `CN1CCC/C1=C(\C#N)C(=O)c1ccc(Cl)cc1` [I-1-a-110, 3-(4-chloro-phenyl)-3-oxo-2-(1-methyl-pyrrolidin-2-ylidene)-propionitrile] came in with a melting point of 115 °C. Still for that read-out and setting: next, `N#C/C(C(=O)c1ccc(NS(=O)(=O)C(F)(F)F)cc1)=C1\CCCCN1` [I-1-a-138, 3-[4-(trifluoromethanesulphonylamino)-phenyl]-3-oxo-2-piperidin-2-ylidene-propionitrile]: 197 °C. Take `N#C/C(C(=S)c1ccc(Cl)cc1)=C1\CCCCN1` [I-1-a-151, 3-(4-chloro-phenyl)-3-thio-2-piperidin-2-ylidene-propionitrile]: the melting point was determined as 137 °C.

Compound `CCOC(=O)C1CC/C(=C(\C#N)C(=O)c2ccccc2Cl)N1` (stereo not drawn) [I-1-d-4] returned a melting point of 222 to 224 °C. Still for that read-out and setting: next, `COC(=O)CSc1ccc(C(=O)/C(C#N)=C2/CCCCN2)cn1` [I-2-a-6]: 146 °C; `N#C/C(C(=O)c1ccc(SCC(=O)O)nc1)=C1\CCCCN1` [I-2-a-7]: 155 °C. Consider `N#CC(C(=O)c1ccc(Cl)cc1)=C1CCCN1Cc1ccc(Cl)nc1` [Preparation Example 3, 3-(4-chlorophenyl)-2-[1-(6-chloropyridin-3-yl-methyl)-pyrrolidin-2-yli-dene]-3-oxo-propionitrile], for which the “activity (kill in %) against Spodoptera frugiperda caterpillars” value in data set [3] is “good activity”.
